The target in experiment [1] is T1, human mGlu5a receptor (Homo sapiens (Human), UniProt P41594). Kind of experiment: MPEP binding assay ([3H]MPEP displacement). Conditions: [3H]MPEP 2 nM, 1 h at 4° C., EBNA cell membranes. Here is the method: For binding experiments, cDNA encoding human mGlu 5a receptor was transiently transfected into EBNA cells using a procedure described by Schlaeger and Christensen [Cytotechnology 15:1-13 (1998)]. Cell membrane homogenates were stored at −80° C. until the day of assay where upon they were thawed and resuspended and polytronised in 15 mM Tris-HCl, 120 mM NaCl, 100 mM KCl, 25 mM CaCl2, 25 mM MgCl2 binding buffer at pH 7.4 to a final assay concentration of 20 μg protein/well.
T1 sequence (P41594 other isoform, or with tags, fused parts or gaps): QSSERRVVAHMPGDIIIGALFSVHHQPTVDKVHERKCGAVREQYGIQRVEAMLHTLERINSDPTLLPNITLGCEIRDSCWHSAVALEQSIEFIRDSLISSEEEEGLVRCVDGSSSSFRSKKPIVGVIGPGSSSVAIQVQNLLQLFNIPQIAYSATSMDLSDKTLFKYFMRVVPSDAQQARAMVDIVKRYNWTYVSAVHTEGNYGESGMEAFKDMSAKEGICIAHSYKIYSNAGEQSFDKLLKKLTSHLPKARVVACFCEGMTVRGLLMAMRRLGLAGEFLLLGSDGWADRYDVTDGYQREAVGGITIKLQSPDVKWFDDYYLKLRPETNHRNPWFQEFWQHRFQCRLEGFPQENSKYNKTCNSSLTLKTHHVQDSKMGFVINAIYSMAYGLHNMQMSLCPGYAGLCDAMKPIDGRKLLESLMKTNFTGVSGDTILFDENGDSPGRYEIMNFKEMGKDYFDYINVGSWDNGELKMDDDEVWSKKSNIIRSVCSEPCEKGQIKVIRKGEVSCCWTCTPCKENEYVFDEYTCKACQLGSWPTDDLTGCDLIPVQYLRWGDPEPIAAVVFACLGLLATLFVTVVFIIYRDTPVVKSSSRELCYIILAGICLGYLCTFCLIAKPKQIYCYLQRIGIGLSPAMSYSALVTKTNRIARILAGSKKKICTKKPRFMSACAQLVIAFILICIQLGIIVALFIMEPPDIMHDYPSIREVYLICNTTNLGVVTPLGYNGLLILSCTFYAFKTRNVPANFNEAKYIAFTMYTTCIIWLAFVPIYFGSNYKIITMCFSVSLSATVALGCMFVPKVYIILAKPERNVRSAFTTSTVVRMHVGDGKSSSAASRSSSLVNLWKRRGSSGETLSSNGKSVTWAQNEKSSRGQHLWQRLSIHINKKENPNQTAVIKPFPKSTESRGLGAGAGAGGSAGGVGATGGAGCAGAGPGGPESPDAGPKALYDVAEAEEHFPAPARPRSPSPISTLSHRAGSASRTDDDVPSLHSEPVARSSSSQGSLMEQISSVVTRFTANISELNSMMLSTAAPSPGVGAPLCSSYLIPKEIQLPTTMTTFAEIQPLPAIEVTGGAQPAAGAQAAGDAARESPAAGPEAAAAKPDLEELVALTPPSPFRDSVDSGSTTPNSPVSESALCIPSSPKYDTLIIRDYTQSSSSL
Saturation isotherms were determined by addition of twelve [^3H]MPEP concentrations (0.04-100 nM) to these membranes (in a total volume of 200 μl) for 1 h at 4° C. Competition experiments were performed with a fixed concentration of [^3H]MPEP (2 nM) and IC50 values of test compounds evaluated using 11 concentrations (0.3-10,000 nM). Incubations were performed for 1 h at 4° C.
At the end of the incubation, membranes were filtered onto unifilter (96-well white microplate with bonded GF/C filter preincubated 1 h in 0.1% PEI in wash buffer, Packard BioScience, Meriden, Conn.) with a Filtermate 96 harvester (Packard BioScience) and washed 3 times with cold 50 mM Tris-HCl, pH 7.4 buffer. Nonspecific binding was measured in the presence of 10 μM MPEP. The radioactivity on the filter was counted (3 min) on a Packard Top-count microplate scintillation counter with quenching correction after addition of 45 μl of microscint 40 (Canberra Packard S.A., Zurich, Switzerland) and shaking for 20 min.

Experiment [2] has as its target T1, human mGlu5a receptor. The experiment is described as follows: Intracellular Ca2+ mobilization assay (mGlu5 PAM assay). The experiment is classed as cell-based. Conditions: for EC50 (nM) mGlu5 PAM assay / mGlu5 PAM EC50 [nM]: HEK-293 cells, human mGlu5a, glutamate at EC20; for Activity profile: PAM = positive allosteric modulator, NAM = negative allosteric modulator; for Efficacy [%]: maximal response in % of the maximal stimulatory effect of saturating L-glutamate. Here is the method:
A monoclonal HEK-293 cell line stably transfected with a cDNA encoding for the human mGlu5a receptor was generated; for the work with mGlu5 Positive Allosteric Modulators (PAMs), a cell line with low receptor expression levels and low constitutive receptor activity was selected to allow the differentiation of agonistic versus PAM activity. Cells were cultured according to standard protocols (Freshney, 2000) in Dulbecco's Modified Eagle Medium with high glucose supplemented with 1 mM glutamine, 10% (vol/vol) heat-inactivated bovine calf serum, Penicillin/Streptomycin, 50 μg/ml hygromycin and 15 μg/ml blasticidin (all cell culture reagents and antibiotics from Invitrogen, Basel, Switzerland).
About 24 hrs before an experiment, 5×10^4 cells/well were seeded in poly-D-lysine coated, black/clear-bottomed 96-well plates. The cells were loaded with 2.5 μM Fluo-4AM in loading buffer (1×HBSS, 20 mM HEPES) for 1 hr at 37° C. and washed five times with loading buffer. The cells were transferred into a Functional Drug Screening System 7000 (Hamamatsu, Paris, France), and 11 half logarithmic serial dilutions of test compound at 37° C. were added and the cells were incubated for 10-30 min. with on-line recording of fluorescence. Following this pre-incubation step, the agonist L-glutamate was added to the cells at a concentration corresponding to EC20 (typically around 80 μM) with on-line recording of fluorescence; in order to account for day-to-day variations in the responsiveness of cells, the EC20 of glutamate was determined immediately ahead of each experiment by recording of a full dose-response curve of glutamate.
Responses were measured as peak increase in fluorescence minus basal (i.e. fluorescence without addition of L-glutamate), normalized to the maximal stimulatory effect obtained with saturating concentrations of L-glutamate. Graphs were plotted with the % maximal stimulatory using XLfit, a curve fitting program that iteratively plots the data using Levenburg Marquardt algorithm. The single site competition analysis equation used was y=A+((B−A)/(1+((x/C)D))), where y is the % maximal stimulatory effect, A is the minimum y, B is the maximum y, C is the EC50, x is the log 10 of the concentration of the competing compound and D is the slope of the curve (the Hill Coefficient). From these curves the EC50 (concentration at which half maximal stimulation was achieved), the Hill coefficient as well as the maximal response in % of the maximal stimulatory effect obtained with saturating concentrations of L-glutamate were calculated.
A depression of the signal observed after addition of the EC20 concentration of L-glutamate was indicative of an inhibitory activity of the test compound.

By Ki is commonly meant the dissociation constant of the complex between target and ligand, obtained from inhibition or displacement. Turning to `CN(C(=O)c1ccc(C#Cc2ccnc(Cl)c2)cn1)C(C)(C)C` [Example 1, 5-(2-Chloro-pyridin-4-ylethynyl)-pyridine-2-carboxylic acid tert-butyl-methyl-amide], at human mGlu5a receptor [1], the Ki is 28 nM. On human mGlu5a receptor [2], the “EC50 (nM) mGlu5 PAM assay” value was “inactive” and the Activity profile result is recorded as “NAM”. The matching figures for `CN(C(=O)c1ccc(C#Cc2cccc(Cl)c2)cn1)C(C)(C)C` [Example 2, 5-(3-Chloro-phenylethynyl)-pyridine-2-carboxylic acid tert-butyl-methyl-amide]: 15 nM, “inactive” and “NAM”.

Consider `CN(C(=O)c1ccc(C#Cc2cccc(F)c2)cn1)C(C)(C)C` [Reference compound 1, reference compound], for which the Ki on human mGlu5a receptor [1] is 29 nM. Also, the Activity profile result at human mGlu5a receptor [2] was “PAM”. In the case of `CN(C(=O)c1ccc(C#Cc2cncc(Cl)c2)cn1)C(C)(C)C` [Reference compound 2, reference compound], at human mGlu5a receptor [1], the Ki was 42 nM. Also, the Activity profile entry on human mGlu5a receptor [2] is given as “PAM”. `CC(C)(NC(=O)c1ccc(C#Cc2ccnc(Cl)c2)cn1)C(F)(F)F` [Reference compound 3, reference compound]: the Ki on human mGlu5a receptor [1] is 58 nM. The Activity profile entry on human mGlu5a receptor [2] was “PAM”. On to `CN(C(=O)c1ccc(C#Cc2cccc(F)c2)cn1)C(C)(C)C` [drawing 3], for which the “Efficacy [%]” value on human mGlu5a receptor [2] worked out at 64%. Turning to `CN(C(=O)c1ccc(C#Cc2cncc(Cl)c2)cn1)C(C)(C)C` [drawing 4], on human mGlu5a receptor [2], the “Efficacy [%]” value stood at 33%.

For `CC(C)(NC(=O)c1ccc(C#Cc2ccnc(Cl)c2)cn1)C(F)(F)F` [drawing 5], the “Efficacy [%]” value on human mGlu5a receptor [2] amounted to 80%. Consider `CN(C(=O)c1ccc(C#Cc2ccnc(Cl)c2)cn1)C(C)(C)C` [drawing 6], for which, on human mGlu5a receptor [2], the “mGlu5 PAM EC50 [nM]” value is recorded as “Inactive”. With `CN(C(=O)c1ccc(C#Cc2cccc(Cl)c2)cn1)C(C)(C)C` [drawing 7], the “mGlu5 PAM EC50 [nM]” value at human mGlu5a receptor [2] was “inactive”.

The values above are taken from US9328070B2, “Ethynyl derivatives” (Hoffmann-La Roche Inc., priority 2012, dated 2016).
